Measurements reported in patent US9840513B2 (AbbVie S.à.r.l., priority 2015, dated 2017).

Biological target: T1, F508delCFTR cell surface expression in CFBE41o-F508delCFTR-HRP cells (Homo sapiens, UniProt P13569, DEL508-508)
T1 construct: fused on or other part: Horseradish peroxidase (HRP) reporter inserted in the fourth exofacial (extracellular) loop of CFTR; expression is doxycycline-inducible
Assay: Cell Surface Expression-Horse Radish Peroxidase (CSE-HRP) Assay
Format: cell-based
Settings: for EC50: CFBE41o-F508delCFTR-HRP cells, 18-24 hours at 33° C., 8-point curve, highest concentration 20 μM; for Maximum % activity (%): maximum at any tested concentration, normalized to on-plate positive control (3 μM)
Source text: Cell Surface Expression-Horse Radish Peroxidase (CSE-HRP) Assay:
A cellular assay for measuring the F508delCFTR cell surface expression after correction with test compounds was developed in human lung derived epithelial cell line (CFBE41o-) (Veit G et al, (2012) Mol Biol Cell. 23(21): 4188-4202). This was achieved by expressing the F508delCFTR mutation along with a horseradish peroxidase (HRP) in the fourth exofacial loop and then measuring the HRP activity using luminescence readout from these cells, CFBE41o-F508delCFTR-HRP, that were incubated overnight with the test corrector compounds. Briefly, for this primary assay, the CFBE41o-F508delCFTR-HRP cells were plated in 384-well plates (Greiner Bio-one; Cat 781080) at 4,000 cells/well along with 0.5 μg/mL doxycycline to induce the F508delCFTR-HRP expression and further incubated at 37° C., 5% CO2 for 72 hours. The test compounds were then added at the required concentrations and further incubated for 18-24 hours at 33° C. The highest concentration tested was 20 μM with an 8-point concentration response curve using a 3-fold dilution. Three replicate plates were run to determine one EC50. All plates contained negative controls (dimethyl sulfoxide, DMSO) and positive controls (3 μM of 3-[(2R,4R)-4-({[1-(2,2-difluoro-1,3-benzodioxol-5-yl)cyclopropyl]carbonyl}amino)-7-methoxy-3,4-dihydro-2H-chromen-2-yl]benzoic acid) as well as on-plate concentration response of the positive control. Post incubation, the plates were washed 5× times with Dulbecco's phosphate buffered saline (DPBS), followed by the addition of the HRP substrate, luminol (50 μL), and measuring the HRP activity using luminescence readout on EnVision® Multilabel Plate Reader (Perkin Elmer; product number 2104-0010). The raw counts from the experiment are analyzed using Accelrys® Assay Explorer v3.3.
Z′ greater than 0.5 was used as passing quality control criteria for the plates.
The Z′ is defined as: 1−[3*SDPositive Control+3*SDNegative Control/Absolute(MeanPositive Control−MeanNegative Control)] wherein “SD” is standard deviation.
The % activity measured at each of the 8 test concentrations of the test compound was normalized to the on-plate positive control using the following formula: % activity=[(test compound response DMSO response)/(positive control response DMSO response)]*100
The maximum % activity achieved for the test compound at any tested concentration is presented in Table 1 along with the EC50 calculated using the following general sigmoidal curve with variable Hill slope equation (described as Model 42 in the Accelrys® Assay Explorer v3.3 software): y=(a−d)/(1+(x/c)^b)+d
General sigmoidal curve with concentration, response, top, bottom, EC50 and Hill slope.
This model describes a sigmoidal curve with an adjustable baseline, a. The equation can be used to fit curves where response is either increasing or decreasing with respect to the independent variable, “x”.
“x” is a concentration of drug under test.
“a” is the maximum response, and “d” is the minimum response
“c” is the inflection point (EC50) for the curve. That is, “y” is halfway between the lower and upper asymptotes when x=c.
“b” is the slope-factor or Hill coefficient. The sign of b is positive when the response increases with increasing dose and is negative when the response decreases with increasing dose (inhibition).

T1 sequence (P13569 with tags, fused parts or gaps DEL508-508 limits assumed): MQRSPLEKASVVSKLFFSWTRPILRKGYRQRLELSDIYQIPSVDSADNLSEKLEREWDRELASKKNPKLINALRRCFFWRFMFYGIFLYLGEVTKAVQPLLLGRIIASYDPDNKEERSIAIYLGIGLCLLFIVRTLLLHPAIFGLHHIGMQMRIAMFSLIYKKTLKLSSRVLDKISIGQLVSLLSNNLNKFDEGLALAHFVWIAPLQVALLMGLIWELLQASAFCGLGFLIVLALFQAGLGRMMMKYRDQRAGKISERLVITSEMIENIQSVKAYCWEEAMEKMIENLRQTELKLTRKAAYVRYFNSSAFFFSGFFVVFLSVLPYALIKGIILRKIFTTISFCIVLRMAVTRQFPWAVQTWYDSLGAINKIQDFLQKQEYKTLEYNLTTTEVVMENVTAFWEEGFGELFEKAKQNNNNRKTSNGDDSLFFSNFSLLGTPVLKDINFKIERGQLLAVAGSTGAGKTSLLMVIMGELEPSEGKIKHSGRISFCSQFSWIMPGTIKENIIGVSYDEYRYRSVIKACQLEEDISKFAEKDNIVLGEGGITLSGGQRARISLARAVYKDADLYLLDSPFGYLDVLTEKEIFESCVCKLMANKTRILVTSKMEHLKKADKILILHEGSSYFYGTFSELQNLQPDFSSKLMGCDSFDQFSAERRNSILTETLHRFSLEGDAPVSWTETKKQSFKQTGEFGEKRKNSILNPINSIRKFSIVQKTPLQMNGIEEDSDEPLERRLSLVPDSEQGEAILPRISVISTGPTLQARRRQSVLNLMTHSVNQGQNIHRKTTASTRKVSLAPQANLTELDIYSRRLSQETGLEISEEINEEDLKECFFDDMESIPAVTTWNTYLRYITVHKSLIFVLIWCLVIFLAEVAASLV
T1 sequence (P13569 919-1480 limits assumed, stated change not applied): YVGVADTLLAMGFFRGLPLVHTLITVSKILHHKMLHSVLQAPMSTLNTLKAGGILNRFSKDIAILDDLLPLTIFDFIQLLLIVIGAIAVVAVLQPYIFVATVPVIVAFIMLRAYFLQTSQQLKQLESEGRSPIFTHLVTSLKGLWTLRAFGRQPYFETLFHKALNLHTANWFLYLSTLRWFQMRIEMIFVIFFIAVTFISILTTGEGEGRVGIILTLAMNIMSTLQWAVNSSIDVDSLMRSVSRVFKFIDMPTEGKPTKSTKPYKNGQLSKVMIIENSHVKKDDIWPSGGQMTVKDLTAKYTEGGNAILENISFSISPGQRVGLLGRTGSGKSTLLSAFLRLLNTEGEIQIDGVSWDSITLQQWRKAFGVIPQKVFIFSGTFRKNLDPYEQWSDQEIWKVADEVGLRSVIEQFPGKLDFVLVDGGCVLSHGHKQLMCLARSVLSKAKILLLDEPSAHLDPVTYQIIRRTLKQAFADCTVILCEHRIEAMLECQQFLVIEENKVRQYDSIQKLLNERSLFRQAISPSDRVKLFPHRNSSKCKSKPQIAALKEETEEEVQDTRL

| Molecule | EC50 [µM] | Maximum % activity (%) |
| --- | --- | --- |
| 1-(6-{[(7R)-2,2-difluoro-7-methyl-6,7-dihydro-2H-furo[2,3-f][1,3]benzodioxole-7-carbonyl]amino}pyridin-2-yl)-4,4-dimethylpyrrolidine-3-carboxylic acid [Example 115] | 1 | 147 |
| 4-[(2R,4S,6R)-4-{[(7R)-2,2-difluoro-7-methyl-6,7-dihydro-2H-furo[2,3-f][1,3]benzodioxole-7-carbonyl]amino}-6-methyloxan-2-yl]benzoic acid and 4-[(2S,4R,6S)-4-{[(7R)-2,2-difluoro-7-methyl-6,7-dihydro-2H-furo[2,3-f][1,3]benzodioxole-7-carbonyl]amino}-6-methyloxan-2-yl]benzoic acid [Example 43] | 2.51 | 93 |
| 4-[(2R,4S,6S)-4-{[(7R)-2,2-difluoro-7-methyl-6,7-dihydro-2H-furo[2,3-f][1,3]benzodioxole-7-carbonyl]amino}-6-phenyloxan-2-yl]benzoic acid and 4-[(2S,4R,6R)-4-{[(7R)-2,2-difluoro-7-methyl-6,7-dihydro-2H-furo[2,3-f][1,3]benzodioxole-7-carbonyl]amino}-6-phenyloxan-2-yl]benzoic acid [Example 34] | 0.48 | 109 |
| Cc1ccc(NC(=O)[C@@]2(C)CCc3c2ccc2c3OCO2)cc1-c1cccc(C(=O)O)c1 (single isomer, unassigned) [Example 38] | 4.56 | 22 |
| C[C@]1(C(=O)N[C@H]2C[C@@H](c3ccc(C(=O)O)cc3)O[C@@H](c3ccccc3)C2)COc2cc3c(cc21)OC(F)(F)O3 (single isomer, unassigned) [Example 45] | 0.92 | 111 |
| O=C(O)c1ccc([C@@H]2C[C@H](NC(=O)C3(c4ccc5c(c4)OC(F)(F)O5)CC3)c3ccccc3N2)cc1 (single isomer, unassigned) [Example 48] | 2.77 | 27 |
| COc1ccc2c(c1)O[C@@H](c1ccc(C(=O)O)cc1)C[C@H]2NC(=O)[C@]1(C)CCc2cc3c(cc21)OC(F)(F)O3 (single isomer, unassigned) [Example 49] | 0.21 | 116 |
| COc1ccc2c(c1)O[C@@H](c1ccc(C(=O)O)cc1)C[C@H]2NC(=O)[C@@]1(C)CCc2cc3c(cc21)OC(F)(F)O3 (single isomer, unassigned) [Example 50] | 1.67 | 75 |
| COc1ccc2c(c1)O[C@@H](c1cccc(C(=O)O)c1)C[C@H]2NC(=O)[C@]1(C)CCc2cc3c(cc21)OC(F)(F)O3 (single isomer, unassigned) [Example 56] | 0.88 | 107 |
| COc1ccc2c(c1)O[C@@H](c1cccc(C(=O)O)c1)C[C@H]2NC(=O)[C@@]1(C)CCc2cc3c(cc21)OC(F)(F)O3 (single isomer, unassigned) [Example 57] | 1.77 | 99 |
| C[C@@]1(C(=O)N[C@@H]2C[C@H](c3ccc(C(=O)O)cc3)Oc3ccccc32)CCc2cc3c(cc21)OC(F)(F)O3 (single isomer, unassigned) [Example 58] | 0.42 | 104 |
| CC(C)(CO)[C@H]1Cc2cc(NC(=O)[C@@]3(C)COc4cc5c(cc43)OC(F)(F)O5)c(F)cc2N1C[C@@H](O)CO (single isomer, unassigned) [Example 140] | 1.3 | 49 |
| CC(C)(CO)[C@@H]1Cc2cc(NC(=O)[C@@]3(C)COc4cc5c(cc43)OC(F)(F)O5)c(F)cc2N1C[C@@H](O)CO (single isomer, unassigned) [Example 141] | 0.96 | 39 |
| COc1ccc2c(c1)O[C@@H](c1cnc([C@@H](O)CO)cn1)C[C@H]2NC(=O)[C@@]1(C)COc2cc3c(cc21)OC(F)(F)O3 (single isomer, unassigned) [Example 191] | 0.07 | 123 |
| COc1ccc2c(c1)O[C@H](c1ccc(OCc3ccccc3)nn1)C[C@H]2NC(=O)[C@@]1(C)COc2cc3c(cc21)OC(F)(F)O3 (single isomer, unassigned) [Example 272] | 0.26 | 108 |
| COc1ccc2c(c1)O[C@@H](c1ccc(OCc3ccccc3)nn1)C[C@H]2NC(=O)[C@@]1(C)COc2cc3c(cc21)OC(F)(F)O3 (single isomer, unassigned) [Example 273] | 0.12 | 92 |
| Cc1ccc(NC(=O)C2(C)COc3cc4c(cc32)OC(F)(F)O4)nc1-c1cccc(C(=O)OC(C)(C)C)c1 (centres unmarked) [Example 1, tert-butyl 3-{6-[(2,2-difluoro-7-methyl-6,7-dihydro-2H-furo[2,3-f][1,3]benzodioxole-7-carbonyl)amino]-3-methylpyridin-2-yl}benzoate] | 2.05 | 100 |
| Cc1ccc(NC(=O)[C@]2(C)COc3cc4c(cc32)OC(F)(F)O4)nc1-c1cccc(C(=O)OC(C)(C)C)c1 [Example 3, tert-butyl 3-(6-{[(7S)-2,2-difluoro-7-methyl-6,7-dihydro-2H-furo[2,3-f][1,3]benzodioxole-7-carbonyl]amino}-3-methylpyridin-2-yl)benzoate] | > 20 | 3 |
| Cc1ccc(NC(=O)[C@]2(C)COc3cc4c(cc32)OC(F)(F)O4)nc1-c1cccc(C(=O)O)c1 [Example 4, 3-(6-{[(7S)-2,2-difluoro-7-methyl-6,7-dihydro-2H-furo[2,3-f][1,3]benzodioxole-7-carbonyl]amino}-3-methylpyridin-2-yl)benzoic acid] | > 20 | 12 |
| Cc1ccc(NC(=O)[C@@]2(C)COc3cc4c(cc32)OC(F)(F)O4)nc1-c1cccc(C(=O)OC(C)(C)C)c1 [Example 5, tert-butyl 3-(6-{[(7R)-2,2-difluoro-7-methyl-6,7-dihydro-2H-furo[2,3-f][1,3]benzodioxole-7-carbonyl]amino}-3-methylpyridin-2-yl)benzoate] | 3.21 | 137 |
| COC(=O)[C@@H]1CCN(c2cccc(NC(=O)C3(C)COc4cc5c(cc43)OC(F)(F)O5)n2)C1 (stereo partly drawn) [Example 7, methyl (3R)-1-{6-[(2,2-difluoro-7-methyl-6,7-dihydro-2H-furo[2,3-f][1,3]benzodioxole-7-carbonyl)amino]pyridin-2-yl}pyrrolidine-3-carboxylate] | 3.77 | 124 |
| CC1(C(=O)Nc2cccc(N3CC[C@@H](C(=O)O)C3)n2)COc2cc3c(cc21)OC(F)(F)O3 (stereo partly drawn) [Example 8, (3R)-1-{6-[(2,2-difluoro-7-methyl-6,7-dihydro-2H-furo[2,3-f][1,3]benzodioxole-7-carbonyl)amino]pyridin-2-yl}pyrrolidine-3-carboxylic acid] | 1.47 | 126 |
| C[C@]1(C(=O)Nc2cccc(N3CC[C@@H](C(=O)O)C3)n2)COc2cc3c(cc21)OC(F)(F)O3 [Example 9, (3R)-1-(6-{[(7R)-2,2-difluoro-7-methyl-6,7-dihydro-2H-furo[2,3-f][1,3]benzodioxole-7-carbonyl]amino}pyridin-2-yl)pyrrolidine-3-carboxylic acid] | 1.03 | 135 |
| COC(=O)c1cccc([C@H]2C[C@@H](NC(=O)C3(C)COc4cc5c(cc43)OC(F)(F)O5)c3ccc(OC)cc3O2)c1 (stereo partly drawn) [Example 10, methyl 3-{(2R,4R)-4-[(2,2-difluoro-7-methyl-6,7-dihydro-2H-furo[2,3-f][1,3]benzodioxole-7-carbonyl)amino]-7-methoxy-3,4-dihydro-2H-1-benzopyran-2-yl}benzoate] | 0.41 | 121 |
| COC(=O)c1cccc([C@H]2C[C@@H](NC(=O)[C@]3(C)COc4cc5c(cc43)OC(F)(F)O5)c3ccc(OC)cc3O2)c1 [Example 12] | > 20 | 14 |
